Source: patent US9598424B2 (Takeda Pharmaceutical Company Limited, priority 2014, dated 2017)

Columns and labels:
[1] = molecular target: T1, TBK1 (Homo sapiens, UniProt Q9UHD2); assay: Inhibition of TBK1 in Cells (TLR3 driven ISRE β-lactamase reporter assay); assay type: cell-based; settings: poly IC-LMW stimulation 16 hrs; -log(EC50), EC50 molar; read-out: Inhibition of TBK1 in cells pEC50 (EC) (converted)
T1 construct: host or cells: RA1-ISRE beta-lactamase reporter cells
T1 sequence (Q9UHD2 1-729): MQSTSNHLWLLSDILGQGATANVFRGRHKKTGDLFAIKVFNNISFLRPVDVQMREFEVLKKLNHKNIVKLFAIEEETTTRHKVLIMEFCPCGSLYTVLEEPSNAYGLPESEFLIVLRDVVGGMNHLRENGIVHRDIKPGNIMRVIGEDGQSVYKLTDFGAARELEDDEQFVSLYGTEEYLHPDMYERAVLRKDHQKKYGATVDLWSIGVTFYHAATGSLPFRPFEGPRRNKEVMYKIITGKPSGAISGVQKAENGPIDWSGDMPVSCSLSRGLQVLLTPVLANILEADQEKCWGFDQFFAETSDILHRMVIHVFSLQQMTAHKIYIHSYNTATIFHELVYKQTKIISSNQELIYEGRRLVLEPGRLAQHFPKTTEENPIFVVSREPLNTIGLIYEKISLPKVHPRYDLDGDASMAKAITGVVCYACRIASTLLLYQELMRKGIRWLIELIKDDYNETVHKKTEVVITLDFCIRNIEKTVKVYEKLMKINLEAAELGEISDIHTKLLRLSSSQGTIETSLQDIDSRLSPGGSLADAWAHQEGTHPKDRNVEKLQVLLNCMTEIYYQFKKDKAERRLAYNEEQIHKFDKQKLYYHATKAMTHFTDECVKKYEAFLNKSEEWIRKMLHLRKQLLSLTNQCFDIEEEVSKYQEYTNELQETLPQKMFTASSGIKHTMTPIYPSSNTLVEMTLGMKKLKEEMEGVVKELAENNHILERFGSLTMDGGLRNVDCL
Protocol: TBK1 inhibition is determined using a TLR3 driven RA1-ISRE β-lacatamase reporter assay (Life Technologies). In the assay 50,000 cells/well are plated in black clear bottom 384 well plate. Each test compound is prepared in DMSO using 2.5-fold serial dilutions for 11 data points, which are then added to the media. Cells are stimulated with 0.15 mg/ml poly IC-LMW (Invivogen) for 16 hrs. Reporter activity is detected using the LiveBLAzer-FRET B/G CCF4-AM substrate (Life Technologies) and the plate is read using the Spectramax M5 instrument. Corresponding EC50 values are calculated by non-linear curve fitting of the compound concentrations and percent of inhibition to the standard EC50 equation and reported as pEC50, i.e., −log(EC50), where EC50 is the molar concentration.

[2] = molecular target: T2, Full length human TBK1 (Homo sapiens, UniProt Q9UHD2); assay: Inhibition of TBK1 Enzyme (Caliper microfluidic assay); assay type: biochemical; settings: 25 μM ATP, 60 min at RT; -log(IC50), IC50 molar; read-out: TBK1 Inhibition (pIC50) (converted)
T2 construct: Full length human TBK1 with an N-terminal His-tag; His-tag (N); made in house; host or cells: Sf9 insect cells (baculovirus, pFastBac1)
T2 sequence (Q9UHD2 1-729): T1 sequence (Q9UHD2 1-729)
Protocol: Full length human TBK1 with an N-terminal His-tag was cloned into the pFastBacl vector and was transfected into Sf9 cells. 72 hours later the virus was harvested and amplified through two additional rounds of infections. Then 400 ml of the resulting virus stock was used to infect 10L of Sf9 cells at a density of 2×10^6 cells/ml. Cell pellets were harvested 48 hours post infection and were lysed by freeze-thaw, homogenization and sonication in binding buffer (25 mM Tris pH7.6, 1 M NaCl, 10 mM imidazole, 0.5 mM TCEP) plus 0.1% Triton X-100 and complete protease inhibitor cocktail. The lysate was spun and the supernatant was purified with a HisTrap FF crude and a Superdex 200 pg column.
TBK1 inhibition is determined using a 384 well plate format in buffer containing 20 mM Hepes, pH 7.4, 10 mM MgCl2, 1 mM EDTA, 0.01% Brij-L23, 1 mM DTT. Each test compound is prepared in DMSO using 2.5-fold serial dilutions for 11 data points, which are added to the buffer so that each dilution contains 1% DMSO. To each well is added 2 μL of 1 μm 5FAM-DRHDSGLDSMKDE-NH2 (in buffer), 2 μL of diluted test compound (1% DMSO in buffer), and 5 μL of 3 nM TBK1 and 25 μM ATP (in buffer). The reaction mixture is incubated at RT for 60 min, and quenched by adding 20 mM Hepes, pH 7.4, 10 mM MgCl2, 1 mM EDTA, 0.01% Brij-L23, 1 mM DTT+25 mM EDTA. To quantify the fluorescent-labeled substrate and product following reaction, the test plate is loaded on a Caliper LC-3000, which measures percent of conversion by microfluidic-based separation. Corresponding IC50 values are calculated by non-linear curve fitting of the compound concentrations and percent of inhibition to the standard IC50 equation and reported as pIC50, i.e., −log(IC50), where IC50 is the molar concentration.

| SMILES | EC50 [1] | IC50 [2] |
| --- | --- | --- |
| CC(F)(F)CNC(=O)c1nc(-c2ccc3nc(NC(=O)C4CC4)cn3c2)c[nH]1 [Example 11, 4-{2-cyclopropaneamidoimidazo[1,2-a]pyridin-6-yl}-N-(2,2-difluoropropyl)-1H-imidazole-2-carboxamide] | 813 nM | 63.1 nM |
| O=C(NCC(F)F)c1cc(-c2ccc3nc(NC(=O)C4CC4)cn3n2)cs1 [Example 18, 4-(2-(cyclopropanecarboxamido)imidazo[1,2-b]pyridazin-6-yl)-N-(2,2-difluoroethyl)thiophene-2-carboxamide] | 251 nM | 10 nM |
| C[C@@H](NC(=O)c1cc(-c2ccc3nc(NC(=O)C4CC4)cn3c2)cs1)C(F)(F)F [Example 81, (R)-4-(2-(cyclopropanecarboxamido)imidazo[1,2-a]pyridin-6-yl)-N-(1,1,1-trifluoropropan-2-yl)thiophene-2-carboxamide] | 44.7 nM | 2.51 nM |
| CC1CCN(C(=O)c2nc(-c3ccc4nc(NC(=O)C5CC5)cn4c3)cs2)C1 (centres unmarked) [Example 103, N-(6-(2-(3-methylpyrrolidine-1-carbonyl)thiazol-4-yl)imidazo[1,2-a]pyridin-2-yl)cyclopropanecarboxamide] | 794 nM | 79.4 nM |
| O=C(Nc1cn2cc(-c3csc(C(=O)N4CC(O)C4)n3)ccc2n1)C1CC1 [Example 113, N-(6-(2-(3-hydroxyazetidine-1-carbonyl)thiazol-4-yl)imidazo[1,2-a]pyridin-2-yl)cyclopropanecarboxamide] | 2690 nM | 126 nM |
| O=C(Nc1cn2cc(-c3cc(C(=O)N4CCCC4)[nH]n3)ccc2n1)C1CC1 [Example 116] | 3020 nM | 200 nM |
| O=C(Nc1cn2cc(-c3csc(C(=O)N4CC(F)(F)C[C@H]4CO)n3)ccc2n1)C1CC1 [Example 96, (S)-N-(6-(2-(4,4-difluoro-2-(hydroxymethyl)pyrrolidine-1-carbonyl)thiazol-4-yl)imidazo[1,2-a]pyridin-2-yl)cyclopropanecarboxamide] | 851 nM | 63.1 nM |
| O=C(Nc1cn2cc(-c3csc(C(=O)N(CCO)CC(F)(F)F)c3)ccc2n1)C1CC1 [Example 120, 4-(2-(cyclopropanecarboxamido)imidazo[1,2-a]pyridin-6-yl)-N-(2-hydroxyethyl)-N-(2,2,2-trifluoroethyl)thiophene-2-carboxamide] | 851 nM | 158 nM |
| O=C(NCC1CCOC1)c1cc(-c2ccc3nc(NC(=O)C4CC4)cn3c2)cs1 (centres unmarked) [Example 75, 4-(2-(cyclopropanecarboxamido)imidazo[1,2-a]pyridin-6-yl)-N-((tetrahydrofuran-3-yl)methyl)thiophene-2-carboxamide] | 1700 nM | 50.1 nM |
| O=C(NCC(F)F)c1ccn(-c2ccc3nc(NC(=O)C4CC4)cn3c2)n1 [Example 35, 1-(2-(cyclopropanecarboxamido)imidazo[1,2-a]pyridin-6-yl)-N-(2,2-difluoroethyl)-1H-pyrazole-3-carboxamide] | 5250 nM | 79.4 nM |
| O=C(N[C@@H]1CCOC1)c1cc(-c2ccc3nc(NC(=O)C4CC4)cn3c2)cs1 [Example 71, (R)-4-(2-(cyclopropanecarboxamido)imidazo[1,2-a]pyridin-6-yl)-N-(tetrahydrofuran-3-yl)thiophene-2-carboxamide] | 2400 nM | 20 nM |
| O=C(NC1CCCC1=O)c1cc(-c2ccc3nc(NC(=O)C4CC4)cn3c2)cs1 (centres unmarked) [Example 85, 4-(2-(cyclopropanecarboxamido)imidazo[1,2-a]pyridin-6-yl)-N-(2-oxocyclopentyl)thiophene-2-carboxamide] | 4070 nM | 100 nM |
| NC(=O)[C@@H]1CC(F)(F)CN1C(=O)c1cc(-c2ccc3nc(NC(=O)C4CC4)cn3c2)cs1 [Example 82, (S)-1-(4-(2-(cyclopropanecarboxamido)imidazo[1,2-a]pyridin-6-yl)thiophene-2-carbonyl)-4,4-difluoropyrrolidine-2-carboxamide] | – | 631 nM |
| O=C(NCC(F)(F)F)c1cn(-c2ccc3nc(NC(=O)C4CC4)cn3c2)cn1 [Example 41, 1-(2-(cyclopropanecarboxamido)imidazo[1,2-a]pyridin-6-yl)-N-(2,2,2-trifluoroethyl)-1H-imidazole-4-carboxamide] | – | 63.1 nM |
| COC1CCN(C(=O)c2cc(-c3ccc4nc(NC(=O)C5CC5)cn4c3)cs2)CC1 [Example 58, N-(6-(5-(4-methoxypiperidine-1-carbonyl)thiophen-3-yl)imidazo[1,2-a]pyridin-2-yl)cyclopropanecarboxamide] | – | 794 nM |
| O=C(NCC(F)F)c1ccn(-c2ccc3nc(NC(=O)C4CC4)cn3n2)n1 [Example 37, 1-(2-(cyclopropanecarboxamido)imidazo[1,2-b]pyridazin-6-yl)-N-(2,2-difluoroethyl)-1H-pyrazole-3-carboxamide] | – | 794 nM |
| Cc1sc(C(=O)NCC(F)(F)F)nc1-c1ccc2nc(NC(=O)C3CC3)cn2c1 [Example 31, 4-(2-(cyclopropanecarboxamido)imidazo[1,2-a]pyridin-6-yl)-5-methyl-N-(2,2,2-trifluoroethyl)thiazole-2-carboxamide] | – | 398 nM |
| O=C(NCC(F)(F)F)c1ncc(-c2ccc3nc(NC(=O)C4CC4)cn3c2)s1 [Example 22, 5-(2-(cyclopropanecarboxamido)imidazo[1,2-a]pyridin-6-yl)-N-(2,2,2-trifluoroethyl)thiazole-2-carboxamide] | – | 200 nM |
| O=C1CC(NC(=O)c2nc(-c3ccc4nc(NC(=O)C5CC5)cn4c3)cs2)CN1 (centres unmarked) [Example 99, 4-(2-(cyclopropanecarboxamido)imidazo[1,2-a]pyridin-6-yl)-N-(5-oxopyrrolidin-3-yl)thiazole-2-carboxamide] | – | 251 nM |
| COC1CN(C(=O)c2nc(-c3ccc4nc(NC(=O)C5CC5)cn4c3)cs2)C1 [Example 101, N-(6-(2-(3-methoxyazetidine-1-carbonyl)thiazol-4-yl)imidazo[1,2-a]pyridin-2-yl)cyclopropanecarboxamide] | – | 631 nM |
| O=C(NCCO)c1nc(-c2ccc3nc(NC(=O)C4CC4)cn3c2)cs1 [Example 95, 4-(2-(cyclopropanecarboxamido)imidazo[1,2-a]pyridin-6-yl)-N-(2-hydroxyethyl)thiazole-2-carboxamide] | – | 398 nM |
| O=C(Nc1cn2cc(-c3csc(C(=O)N4CCC(CO)C4)n3)ccc2n1)C1CC1 (centres unmarked) [Example 100, N-(6-(2-(3-(hydroxymethyl)pyrrolidine-1-carbonyl)thiazol-4-yl)imidazo[1,2-a]pyridin-2-yl)cyclopropanecarboxamide] | – | 200 nM |
| Cc1sc(C(=O)NCC(F)(F)F)nc1-c1ccc2nc(NC(=O)C3CC3)cn2n1 [Example 20, 4-(2-(cyclopropanecarboxamido)imidazo[1,2-b]pyridazin-6-yl)-5-methyl-N-(2,2,2-trifluoroethyl)thiazole-2-carboxamide] | – | 501 nM |
